Measurements published in US20230226106A1 (priority 2017, published 2023).

Tested on: Human umbilical cord endothelial cells
Assay type: cell-based
Excerpt: The toxicity of each component is checked on Human cell lines (Human umbilical cord endothelial cells).

Row | Structure (SMILES) | toxicity (Human umbilical cord endothelial cells) | proliferation of cells (at as low as 1 μM concentration) | human cell growth (treatment with as much as 250 μg/mL)
1 | CCCCCCCCCCCCC/C=C/[C@@H](O)[C@@H](N)COP(=O)(O)O [Sphingosine-1-phosphate, Sphingosine-1-Phosphate] | not toxic | proliferative | 
2 | O=C(O)c1cc(O)c(O)c(O)c1 [Gallic acid] |  |  | 100%
